Data from US8198061B2, “Acetylcholinesterase gene responsible for insecticide resistance and applications thereof” (priority 2002, dated 2012).

What was measured:
[1] = molecular target: AChE; conditions: Abramson et al., Mol. Pharmacol., 1989, 36, 349; read-out: apparent affinity; cited from earlier work
[2] = molecular target: T1, Culex pipiens AChE1, sensitive S-LAB strain (glycine at position 119) (Culex pipiens, UniProt Q86GC8); experiment: Acetylcholinesterase activity of recombinant sensitive AChE1 (S2 cell extracts) with propoxur; format: biochemical; conditions: 10^−3 M of propoxur
T1 construct: The cDNAs encoding the AChE1s of, respectively, the strain S-LAB and the strain SR were cloned in the eukaryotic expression vector pAc5.1/V5-His; V5-His (from the vector pAc5.1/V5-His); made in house; host or cells: Drosophila Schneider S2 cells, transiently transfected; Triton X-100 cell extract, not purified
Source text: (§1) The cDNAs encoding the AChE1s of, respectively, the strain S-LAB and the strain SR were cloned in the eukaryotic expression vector pAc5.1/V5-His (INVITROGEN), according to conventional recombinant DNA techniques, by following standard protocols such as those described in Current Protocols in Molecular Biology, mentioned above. Drosophila cells (Schneider S2 cells) were transfected with the recombinant vectors thus obtained, using the Fugen® reagent (ROCHE), according to the manufacturer's instructions. 24 hours after transfection, the cells were harvested by centrifugation and then lyzed in a 0.25M phosphate buffer containing 1% Triton X-100. The acetylcholinesterase activity of the cell extracts obtained was measured, in the presence or in the absence of insecticide (propoxur), by the method as described in Bourguet et al., Biochemical Genetics, 1996, 34, 351-362.
(§2) The recombinant AChE1s of, respectively, the strain S-LAB and the strain SR were expressed in insect cells and the acetylcholinesterase activity was measured using cell extracts as described in example 1.

[3] = molecular target: T2, Culex pipiens AChE1, resistant SR strain (serine at position 119, G119S) (Culex pipiens, UniProt Q86GC8, G247S); experiment: Acetylcholinesterase activity of recombinant resistant AChE1 (S2 cell extracts) with propoxur; format: biochemical; conditions: glycine247(119)→serine247(119) mutant (SR); 10^−4 M and 10^−2 M of propoxur; FIG. 10
T2 construct: The cDNAs encoding the AChE1s of, respectively, the strain S-LAB and the strain SR were cloned in the eukaryotic expression vector pAc5.1/V5-His; V5-His (from the vector pAc5.1/V5-His); made in house; host or cells: Drosophila Schneider S2 cells, transiently transfected; Triton X-100 cell extract, not purified
Source text: as §1, §2

[4] = tested on: C. pipiens larvae; experiment: Larval mortality on exposure to propoxur (back crosses, ace-1 linkage study); format: in vivo, Culex pipiens
Description: With the females being indicated first, F1 crosses (S×R) and back crosses (F1×S-LAB and S-LAB×F1) were obtained by mass crossing of adults. A few larvae derived from the back crosses were treated with a dose of carbamate (propoxur, 4 mg/l) which kills 100% of sensitive larvae. The linkage between ace-1 and propoxur resistance was studied by RFLP in the surviving larvae, based on a 320 bp PCR product making it possible to identify the S and R alleles. The experiments were carried out independently, with S=SA1, S=SA4 and S=EDIT.
The linkage between the ace-1 gene and propoxur resistance was studied, in triplicate, in the following way: larvae from a backcross (S×R)×S were treated for a dose that is lethal for sensitive individuals and the ace-1 genotype was analyzed in the survivors, by PCR-RFLP.

C=C1CCCC(C)(C)C1C/C=C(C=O)\C=C\OC(C)=O (centres unmarked) [onchidal]
Kd [1]: 300 µM

CNC(=O)Oc1ccccc1OC(C)C [propoxur]
activity of the AChE1 inhibited [2]: 90%
sensitivity of the acetylcholinesterase to the insecticide [3]: insensitive
larvae killed in back crosses ([4]; larvae from backcross (S×R)×S, dose lethal for sensitive individuals, all back crosses): 50%
sensitive larvae killed ([4]; sensitive larvae, propoxur 4 mg/l): 100%
